Assay results from US20230279020A9, “CARM1 INHIBITORS AND USES THEREOF” (Epizyme, Inc., priority 2013, published 2023).

Assays:
U266B1 = experiment: Human myeloma cell line 14-day proliferation assay (U266B1); type: cell-based; settings: U266B1 Human Multiple Myeloma cell line, varying doses, FIG. 1B
Protocol: (§1) Human Multiple Myeloma cell lines NCI-H929 (FIG. 1A) and U266B1 (FIG. 1B) were treated with varying doses of 304-1a (medium grey data points), 23-3 (light grey data points), and 113-3 (black data points) in a 14-day proliferation assay. At the end of the experiment, total cell number was determined for each cell line for different doses of 304-1a, 23-3, and 113-3.

Human CARM1 (PRMT4) = Human CARM1 (PRMT4) (Homo sapiens (Human), UniProt Q86X55); experiment: CARM1 enzyme assay on peptide substrate (3H-SAM Flashplate); settings: Biochemical potencies, classification codes; read-out: Biochem IC50
NCI-H929 = experiment: Human myeloma cell line 14-day proliferation assay (NCI-H929); type: cell-based; settings: NCI-H929 Human Multiple Myeloma cell line, varying doses, FIG. 1A
Protocol: as §1

Sequence of Human CARM1 (PRMT4) (Q86X55 other isoform, or with tags, fused parts or gaps isoform Q86X55-1): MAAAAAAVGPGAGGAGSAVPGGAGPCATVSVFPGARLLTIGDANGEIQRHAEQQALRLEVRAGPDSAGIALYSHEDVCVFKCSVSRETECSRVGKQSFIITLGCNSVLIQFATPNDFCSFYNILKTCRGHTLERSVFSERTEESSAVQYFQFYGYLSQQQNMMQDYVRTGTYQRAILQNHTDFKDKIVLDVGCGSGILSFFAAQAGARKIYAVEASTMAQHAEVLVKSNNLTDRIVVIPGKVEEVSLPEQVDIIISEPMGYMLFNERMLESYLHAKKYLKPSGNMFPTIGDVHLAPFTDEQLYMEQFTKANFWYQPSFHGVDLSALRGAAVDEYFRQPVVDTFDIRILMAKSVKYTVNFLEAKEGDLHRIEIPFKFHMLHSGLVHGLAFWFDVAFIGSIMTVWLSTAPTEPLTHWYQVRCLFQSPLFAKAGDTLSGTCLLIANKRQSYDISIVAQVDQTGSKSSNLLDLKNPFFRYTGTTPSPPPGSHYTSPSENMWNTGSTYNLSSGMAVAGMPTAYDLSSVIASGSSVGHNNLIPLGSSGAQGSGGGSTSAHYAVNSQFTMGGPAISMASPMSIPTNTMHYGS

Compound	cell proliferation (total cell number) (U266B1)	IC50 (Human CARM1 (PRMT4)) [nM]	cell proliferation (total cell number) (NCI-H929)
CCOC(=O)N1CCOC[C@@H]1CNc1nc(-c2cc(OC[C@H](O)CNC)ccc2Cl)nc(-c2c(C)noc2C)c1C [Example 23-3]	decreased the proliferation	< 100	decreased the proliferation
CNC[C@@H](O)COc1ccc(Cl)c(-c2nc(-c3c(C)noc3C)c(C)c(N3Cc4cccnc4C3)n2)c1 [Example 113-3]	decreased the proliferation	< 100	decreased the proliferation
CNC[C@@H](O)COc1ccc(Cl)c(-c2nc(NC3CCN(C(=O)OC)CC3)c(Cl)c(-c3c(C)noc3C)n2)c1 [Example 304-1a]	decreased the proliferation	< 100	decreased the proliferation
